In patent US10077261B2, “Imidazolin-5-one derivative useful as FASN inhibitors for the treatment of cancer” (Janssen Pharmaceutica NV, priority 2012, dated 2018):

Biological target: T1, hFASN enzyme (full length) (Homo sapiens, UniProt P49327)
T1 construct: 10 μL hFASN enzyme (full length, 300 ng, purified in house); made in house
Experiment: Fatty Acid Synthase (FASN) inhibition scintillation proximity assay
Type: biochemical
Settings: for inhibition at 10 µM: read-out: Human FASN % inhibition @ 10 μM, 10 μM test compound; for IC50: read-out: Human FASN pIC50 (converted)
Method in brief: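 Compounds at 0.01–30 μM were mixed with 300 ng purified full-length enzyme in 100 mM KH2PO4 pH 7.5, 1 mM DTT. Substrates ³H-acetyl-CoA and malonyl-CoA were then converted, and bead addition stopped the reaction. Signal was normalised to low and high plate controls and fitted by 4-parameter nonlinear regression.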

T1 sequence (P49327 whole entry): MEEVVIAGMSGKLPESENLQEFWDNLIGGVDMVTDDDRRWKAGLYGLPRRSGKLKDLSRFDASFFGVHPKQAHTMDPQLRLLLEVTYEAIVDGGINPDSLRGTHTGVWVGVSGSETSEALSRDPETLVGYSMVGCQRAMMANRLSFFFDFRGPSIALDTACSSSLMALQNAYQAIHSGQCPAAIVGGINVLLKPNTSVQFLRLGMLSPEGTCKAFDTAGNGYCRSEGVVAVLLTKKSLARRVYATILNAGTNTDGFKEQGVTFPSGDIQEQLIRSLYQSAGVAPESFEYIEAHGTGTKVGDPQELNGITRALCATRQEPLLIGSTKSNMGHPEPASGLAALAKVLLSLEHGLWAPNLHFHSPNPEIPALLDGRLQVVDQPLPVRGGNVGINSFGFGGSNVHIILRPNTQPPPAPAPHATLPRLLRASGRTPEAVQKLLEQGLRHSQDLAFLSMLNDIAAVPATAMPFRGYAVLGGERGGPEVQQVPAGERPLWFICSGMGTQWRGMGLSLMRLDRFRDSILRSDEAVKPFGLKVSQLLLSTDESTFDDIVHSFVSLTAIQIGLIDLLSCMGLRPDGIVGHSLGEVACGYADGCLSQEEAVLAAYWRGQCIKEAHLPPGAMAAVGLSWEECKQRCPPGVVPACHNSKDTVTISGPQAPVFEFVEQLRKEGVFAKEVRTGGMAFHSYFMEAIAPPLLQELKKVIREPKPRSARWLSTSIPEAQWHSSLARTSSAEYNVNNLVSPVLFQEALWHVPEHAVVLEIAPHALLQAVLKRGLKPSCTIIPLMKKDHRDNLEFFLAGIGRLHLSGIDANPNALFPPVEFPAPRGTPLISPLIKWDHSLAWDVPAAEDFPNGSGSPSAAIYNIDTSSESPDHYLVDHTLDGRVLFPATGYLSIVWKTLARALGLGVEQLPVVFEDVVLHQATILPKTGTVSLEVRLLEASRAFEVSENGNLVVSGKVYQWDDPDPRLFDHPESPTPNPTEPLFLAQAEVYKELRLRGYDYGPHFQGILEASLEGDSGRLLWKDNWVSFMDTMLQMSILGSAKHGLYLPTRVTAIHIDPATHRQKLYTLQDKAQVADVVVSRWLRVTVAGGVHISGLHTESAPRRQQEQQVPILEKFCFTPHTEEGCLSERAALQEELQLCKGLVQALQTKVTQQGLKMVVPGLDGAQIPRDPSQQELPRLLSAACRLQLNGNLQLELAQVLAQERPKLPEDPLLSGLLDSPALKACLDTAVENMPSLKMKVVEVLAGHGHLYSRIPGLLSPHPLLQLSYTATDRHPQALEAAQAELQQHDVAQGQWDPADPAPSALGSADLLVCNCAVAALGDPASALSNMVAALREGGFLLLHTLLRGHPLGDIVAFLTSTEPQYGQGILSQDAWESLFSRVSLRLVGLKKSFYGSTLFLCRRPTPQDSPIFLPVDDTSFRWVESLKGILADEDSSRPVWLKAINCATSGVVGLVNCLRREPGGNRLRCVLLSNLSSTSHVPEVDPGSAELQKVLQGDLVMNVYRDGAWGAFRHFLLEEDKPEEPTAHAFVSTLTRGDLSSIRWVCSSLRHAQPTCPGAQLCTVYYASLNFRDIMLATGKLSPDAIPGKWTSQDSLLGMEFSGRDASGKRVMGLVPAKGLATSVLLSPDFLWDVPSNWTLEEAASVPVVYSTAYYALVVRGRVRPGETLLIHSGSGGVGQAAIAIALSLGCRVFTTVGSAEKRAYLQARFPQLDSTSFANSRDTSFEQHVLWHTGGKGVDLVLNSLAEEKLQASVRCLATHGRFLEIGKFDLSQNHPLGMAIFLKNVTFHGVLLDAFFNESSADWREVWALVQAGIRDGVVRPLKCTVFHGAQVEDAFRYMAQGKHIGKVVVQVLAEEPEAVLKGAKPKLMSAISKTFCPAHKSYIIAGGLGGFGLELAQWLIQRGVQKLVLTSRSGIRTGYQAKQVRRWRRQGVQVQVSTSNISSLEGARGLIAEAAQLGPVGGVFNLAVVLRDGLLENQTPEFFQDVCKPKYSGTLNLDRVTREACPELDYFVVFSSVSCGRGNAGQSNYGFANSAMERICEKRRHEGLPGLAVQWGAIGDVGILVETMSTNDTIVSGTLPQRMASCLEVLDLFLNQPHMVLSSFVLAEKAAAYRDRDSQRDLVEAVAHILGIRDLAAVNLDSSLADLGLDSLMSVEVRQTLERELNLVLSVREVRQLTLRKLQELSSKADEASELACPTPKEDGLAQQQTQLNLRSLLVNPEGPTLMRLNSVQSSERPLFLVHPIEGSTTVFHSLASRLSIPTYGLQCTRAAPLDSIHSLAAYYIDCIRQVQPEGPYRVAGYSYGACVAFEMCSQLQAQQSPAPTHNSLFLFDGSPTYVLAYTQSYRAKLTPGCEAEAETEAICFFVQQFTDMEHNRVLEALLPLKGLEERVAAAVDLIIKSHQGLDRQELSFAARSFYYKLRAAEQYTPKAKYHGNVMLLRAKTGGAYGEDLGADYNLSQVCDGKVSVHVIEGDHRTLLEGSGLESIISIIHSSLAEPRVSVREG

Row | Compound | inhibition at 10 µM | IC50 | Human FASN pIC50 (hFASN enzyme, full length, "~" means standard error of the pIC50 is larger than 0.5)
1 | CN1CCN(c2cc(-c3ccc(C4=NC5(CCCC5)C(=O)N4C[C@@H]4CCN(C(=O)C5CC5)C4)cc3)ccn2)CC1 [compound 829, (R)-3-((1-(cyclopropanecarbonyl)pyrrolidin-3-yl)methyl)-2-(4-(2-(4-methylpiperazin-1-yl)pyridin-4-yl)phenyl)-1,3-diazaspiro[4.4]non-1-en-4-one] | 7% | > 10 µM | 
2 | Cn1ncc2cc(-c3ncc(C4=NC5(CC5)C(=O)N4C[C@@H]4CCN(C(=O)C5CC5)C4)cn3)ccc21 [compound 459, 6-{[(3R)-1-(Cyclopropylcarbonyl)pyrrolidin-3-yl]methyl}-5-[2-(1-methyl-1H-indazol-5-yl)pyrimidin-5-yl]-4,6-diazaspiro[2.4]hept-4-en-7-one] | 43% |  | 5.06
3 | O=C(N1CCCC1)N1CC[C@@H](CN2C(=O)C3(CCOC3)N=C2c2ccc(-c3ccc4occc4c3)cc2)C1 (stereo partly drawn) [compound 689, 2-[4-(1-Benzofuran-5-yl)phenyl]-3-{[(3S)-1-(pyrrolidin-1-ylcarbonyl)pyrrolidin-3-yl]methyl}-7-oxa-1,3-diazaspiro[4.4]non-1-en-4-one] | 61% | 4.07 µM | 
4 | O=C(C1CC1)N1CC(CN2C(=O)C3(CCN(C(=O)C(F)(F)F)CC3)N=C2c2ccc(-c3ccc4[nH]ncc4c3)cc2)C1 [compound 766, 3-{[1-(Cyclopropylcarbonyl)azetidin-3-yl]methyl}-2-[4-(1H-indazol-5-yl)phenyl]-8-(trifluoroacetyl)-1,3,8-triazaspiro[4.5]dec-1-en-4-one] | 67% | ~4.47 µM | 
5 | CC(C)C(=O)N1CCC2(CC1)N=C(c1ccc(-c3ccc4c(cnn4C)c3)cc1)N(C[C@@H]1CCN(C(=O)C3CC3)C1)C2=O [compound 139, (R)-3-((1-(cyclopropanecarbonyl)pyrrolidin-3-yl)methyl)-8-isobutyryl-2-(4-(1-methyl-1H-indazol-5-yl)phenyl)-1,3,8-triazaspiro[4.5]dec-1-en-4-one] | 112% | 0.174 µM | 
6 | O=C(C1CC1)N1CCC(CN2C(=O)C3(CC3)N=C2c2ccc(-c3ccc4ccncc4c3)cc2)CC1 [compound 25, 6-{[1-(Cyclopropylcarbonyl)piperidin-4-yl]methyl}-5-(4-isoquinolin-7-ylphenyl)-4,6-diazaspiro[2.4]hept-4-en-7-one] | 64.4% | ~4.9 µM | 
7 | COC(=O)N1CC2(C1)N=C(c1ccc(-c3ccc4occc4c3)cc1)N(C[C@@H]1CCN(C(=O)C(C)O)C1)C2=O (stereo partly drawn) [compound 734, Methyl 6-[4-(1-benzofuran-5-yl)phenyl]-7-{[(3R)-1-(2-hydroxypropanoyl)pyrrolidin-3-yl]methyl}-8-oxo-2,5,7-triazaspiro[3.4]oct-5-ene-2-carboxylate] | 84% | 1.7 µM | 
8 | COC(=O)N1CC2(C1)N=C(c1ccc(-c3ccc(-c4cnn(C)c4)cc3)cc1)N(C[C@@H]1CCN(C(=O)C(C)O)C1)C2=O (stereo partly drawn) [compound 726, Methyl 7-{[(3R)-1-(2-hydroxypropanoyl)pyrrolidin-3-yl]methyl}-6-[4′-(1-methyl-1H-pyrazol-4-yl)biphenyl-4-yl]-8-oxo-2,5,7-triazaspiro[3.4]oct-5-ene-2-carboxylate] | 73% | 1.95 µM | 
9 | Cn1ncc2cc(-c3ccc(C4=NC5(CC5)C(=O)N4CC4CN(C(=O)C5CC5)C4)cc3F)ccc21 [compound 441, 6-{[1-(Cyclopropylcarbonyl)azetidin-3-yl]methyl}-5-[3-fluoro-4-(1-methyl-1H-indazol-5-yl)phenyl]-4,6-diazaspiro[2.4]hept-4-en-7-one] | 63% | 3.98 µM | 
10 | O=C(C1CC1)N1CC[C@@H](CN2C(=O)C3(CC3)N=C2c2ccc(-c3cc4cc(Br)ccc4cn3)cc2)C1 [compound 478, 5-[4-(6-Bromoisoquinolin-3-yl)phenyl]-6-{[(3R)-1-(cyclopropylcarbonyl)pyrrolidin-3-yl]methyl}-4,6-diazaspiro[2.4]hept-4-en-7-one] | 92% | 1.38 µM | 
11 | O=C(C1CC1)N1CC(CN2C(=O)C3(CC3)N=C2c2ccc(-c3ccc4occc4c3)c(F)c2)C1 [compound 415] | 80% | 1.26 µM | 
12 | COC(=O)N1CC2(C1)N=C(c1ccc(-c3ccc4cccnc4c3)cc1)N(C[C@@H]1CCN(C(=O)N3CCCC3)C1)C2=O [compound 732, Methyl 8-oxo-7-{[(3S)-1-(pyrrolidin-1-ylcarbonyl)pyrrolidin-3-yl]methyl}-6-(4-quinolin-7-ylphenyl)-2,5,7-triazaspiro[3.4]oct-5-ene-2-carboxylate] | 88% | ~1.2 µM | 
13 | O=C(C1CC1)N1CC[C@@H](CN2C(=O)C3(CCCC3)N=C2c2ccc(-c3ccnc4ccccc34)cc2)C1 [compound 22, 3-{[(3R)-1-(Cyclopropylcarbonyl)pyrrolidin-0 3-yl]methyl}-2-(4-quyinolin-4-ylphenyl)-1,3-diazaspiro[4.4]non-1-en-4-one] | 85% | 1.07 µM | 
14 | COc1ccccc1-c1ccc(C2=NC3(CC3)C(=O)N2CC2CCN(C(=O)C3CC3)CC2)cc1 [compound 98, 6-{[1-(Cyclopropylcarbonyl)piperidin-4-yl]methyl}-5-(2′-methoxybiphenyl-4-yl)-4,6-diazaspiro[2.4]hept-4-en-7-one] | 35.1% | > 10 µM | 
15 | COC(=O)N1CC2(C1)N=C(c1ccc(-c3ccc4occc4c3)cc1)N(C[C@@H]1CCN(C(=O)C(F)(F)F)C1)C2=O [compound 946, (R)-methyl 6-(4-(benzofuran-5-yl)phenyl)-8-oxo-7-((1-(2,2,2-trifluoroacetyl)pyrrolidin-3-yl)methyl)-2,5,7-triazaspiro[3.4]oct-5-ene-2-carboxylate] | 37% | > 10 µM | 
16 | O=C(c1nccs1)N1CC[C@@H](CN2C(=O)C3(CCOCC3)N=C2c2ccc(-c3ccc4occc4c3)cc2)C1 [compound 958, (R)-2-(4-(benzofuran-5-yl)phenyl)-3-((1-(thiazole-2-carbonyl)pyrrolidin-3-yl)methyl)-8-oxa-1,3-diazaspiro[4.5]dec-1-en-4-one] | -6% | > 10 µM | 
17 | CC(O)C(=O)N1CC[C@@H](CN2C(=O)C3(CCOCC3)N=C2c2ccc(-c3ccc(-c4cnn(C)c4)cc3)cc2)C1 (stereo partly drawn) [compound 656, 3-{[(3R)-1-(2-Hydroxypropanoyl)pyrrolidin-3-yl]methyl}-2-[4′-(1-methyl-1H-pyrazol-4-yl)biphenyl-4-yl]-8-oxa-1,3-diazaspiro[4.5]dec-1-en-4-one] | 74% | 2 µM | 
18 | O=C(C1CC1)N1CC[C@@H](CN2C(=O)C3(CCCC3)N=C2c2ccc(-c3ccncc3)cc2)C1 [compound 3, 3-{[(3R)-1-(Cyclopropylcarbonyl)pyrrolidin-3-yl]methyl}-2-(4-pyridin-4-ylphenyl)-1,3-diazaspiro[4.4]non-1-en-4-one] | 44.3% | > 10 µM | 
19 | COC(=O)N1CC(CN2C(=O)C3(CCOC3)N=C2c2ccc(-c3ccc4occc4c3)cc2)C1 (stereo not shown) [compound 904, methyl 3-((2-(4-(benzofuran-5-yl)phenyl)-4-oxo-7-oxa-1,3-diazaspiro[4.4]non-1-en-3-yl)methyl)azetidin-1-carboxylate] | -24% | > 10 µM | 
20 | O=C(c1nccs1)N1CC(CN2C(=O)C3(CCOC3)N=C2c2ccc(-c3ccc4occc4c3)cc2)C1 (stereo not shown) [compound 932, 2-(4-(benzofuran-5-yl)phenyl)-3-((1-(thiazole-2-carbonyl)azetidin-3-yl)methyl)-7-oxa-1,3-diazaspiro[4.4]non-1-en-4-one] | 2% | > 10 µM | 
21 | CCn1ncc2cc(-c3ccc(C4=NC5(CC5)C(=O)N4CC4CN(C(=O)C5CC5)C4)cc3)ccc21 [compound 505, 6-{[1-(Cyclopropylcarbonyl)azetidin-3-yl]methyl}-5-[4-(1-ethyl-1H-indazol-5-yl)phenyl]-4,6-diazaspiro[2.4]hept-4-en-7-one] | 80% | 1.17 µM | 
22 | COC(=O)N1CC[C@@H](CN2C(=O)C3(CCOCC3)N=C2c2ccc(-c3ccc4c(cnn4C)c3)cc2)C1 [compound 953, (S)-methyl 3-((2-(4-(1-methyl-1H-indazol-5-yl)phenyl)-4-oxo-8-oxa-1,3-diazaspiro[4.5]dec-1-en-3-yl)methyl)pyrrolidine-1-carboxylate] | 35% | > 10 µM | 
23 | CN(C)CC(=O)N1CCC2(CC1)N=C(c1ccc(-c3ccc4occc4c3)cc1)N(C[C@@H]1CCN(C(=O)C3CC3)C1)C2=O [compound 153, 2-[4-(1-Benzofuran-5-yl)phenyl]-3-{[(3R)-1-(cyclopropylcarbonyl)pyrrolidin-3-yl]methyl}-8-(N,N-dimethylglycyl)-1,3,8-triazaspiro[4.5]dec-1-en-4-one] | 116% | 0.105 µM | 
24 | CS(=O)(=O)N1CC(CN2C(=O)C3(CCOCC3)N=C2c2ccc(-c3ccc4occc4c3)cc2)C1 [compound 888, 2-(4-(benzofuran-5-yl)phenyl)-3-((1-(methylsulfonyl)azetidin-3-yl)methyl)-8-oxa-1,3-diazaspiro[4.5]dec-1-en-4-one] | 1% | > 10 µM | 
25 | CC(O)C(=O)N1CC[C@@H](CN2C(=O)C3(CCOCC3)N=C2c2ccc(-c3ccc4occc4c3)cc2)C1 (stereo partly drawn) [compound 668, 2-[4-(1-Benzofuran-5-yl)phenyl]-3-{[(3R)-1-(2-hydroxypropanoyl)pyrrolidin-3-yl]methyl}-8-oxa-1,3-diazaspiro[4.5]dec-1-en-4-one] | 86% | 1.17 µM | 
26 | COC(=O)N1CC[C@@H](CN2C(=O)C3(CCOC3)N=C2c2ccc(-c3ccc4occc4c3)cc2)C1 (stereo partly drawn) [compound 954, (3S)-methyl 3-((2-(4-(benzofuran-5-yl)phenyl)-4-oxo-7-oxa-1,3-diazaspiro[4.4]non-1-en-3-yl)methyl)pyrrolidine-1-carboxylate] | 27% | > 10 µM | 
